Results: patent US9440957B2, “Compounds and compositions for modulating EGFR Activity” (Novartis AG, priority 2012, dated 2016)
Where two headings read alike, the source gives them in different places.

Experiments:
[1] = target: human EGFR WT (NIH/3T3 cells, EGF-induced) (Homo sapiens, UniProt P00533); assay: EGFR target modulation in engineered NIH/3T3 cell lines (phospho-EGFR Y1068 AlphaLISA), EGFR WT; type: cell-based; settings: engineered NIH/3T3 cells, read-out: NIH3T3 IC50 (μM) EGFR (WT)
In short: (§1)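 Engineered NIH/3T3 cells expressing EGFR variants treated 3 h at 37 °C with 12-point 1:3 compound series (top stock 10 μM); only WT cells stimulated with 50 ng/ml EGF for 5 min before lysis. Phospho-Y1068 measured by AlphaLISA with total-EGFR antibody; IC50 from non-linear fitting.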

[2] = target: human EGFR L858R (NIH/3T3 cells) (Homo sapiens, UniProt P00533, L858R); assay: EGFR target modulation in engineered NIH/3T3 cell lines (phospho-EGFR Y1068 AlphaLISA), EGFR L858R; type: cell-based; settings: engineered NIH/3T3 cells, read-out: NIH3T3 IC50 (μM) EGFR (L858R)
Chain of human EGFR L858R (NIH/3T3 cells) (P00533 25-1210 L858R): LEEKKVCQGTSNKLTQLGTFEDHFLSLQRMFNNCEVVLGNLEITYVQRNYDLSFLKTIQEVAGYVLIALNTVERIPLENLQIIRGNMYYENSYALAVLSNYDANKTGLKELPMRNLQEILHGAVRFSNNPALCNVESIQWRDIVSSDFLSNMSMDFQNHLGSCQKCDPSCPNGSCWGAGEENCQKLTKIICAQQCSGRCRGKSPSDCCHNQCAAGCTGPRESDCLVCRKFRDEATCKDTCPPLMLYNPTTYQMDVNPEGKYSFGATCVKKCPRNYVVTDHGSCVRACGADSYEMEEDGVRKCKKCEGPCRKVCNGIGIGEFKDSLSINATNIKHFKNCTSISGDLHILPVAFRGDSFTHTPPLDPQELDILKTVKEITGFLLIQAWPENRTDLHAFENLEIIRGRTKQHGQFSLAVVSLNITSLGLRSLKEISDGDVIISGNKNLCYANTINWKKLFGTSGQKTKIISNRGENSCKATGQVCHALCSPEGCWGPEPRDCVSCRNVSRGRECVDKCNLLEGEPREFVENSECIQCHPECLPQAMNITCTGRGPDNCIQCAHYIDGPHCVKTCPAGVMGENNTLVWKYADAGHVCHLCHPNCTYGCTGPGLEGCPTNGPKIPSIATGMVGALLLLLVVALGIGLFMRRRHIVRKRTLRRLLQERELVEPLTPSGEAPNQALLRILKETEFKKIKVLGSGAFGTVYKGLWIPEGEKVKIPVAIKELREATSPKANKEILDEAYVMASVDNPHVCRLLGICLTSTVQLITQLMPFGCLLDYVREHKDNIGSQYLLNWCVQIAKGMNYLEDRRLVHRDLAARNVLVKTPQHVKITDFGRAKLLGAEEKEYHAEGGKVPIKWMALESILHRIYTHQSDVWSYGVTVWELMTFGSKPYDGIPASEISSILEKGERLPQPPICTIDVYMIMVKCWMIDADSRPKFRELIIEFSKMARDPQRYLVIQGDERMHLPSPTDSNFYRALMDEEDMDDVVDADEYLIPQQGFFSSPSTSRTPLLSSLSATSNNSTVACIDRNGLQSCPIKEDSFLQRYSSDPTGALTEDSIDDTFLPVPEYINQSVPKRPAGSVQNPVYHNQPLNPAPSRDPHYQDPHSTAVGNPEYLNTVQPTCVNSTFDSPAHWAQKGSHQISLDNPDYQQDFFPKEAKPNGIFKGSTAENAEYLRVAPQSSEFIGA
In short: as §1

HEKn (EGFR WT) = HEKn (EGFR WT) (Homo sapiens, UniProt P00533); assay: EGFR target modulation in HEKn (EGFR-WT) cell line (phospho-EGFR Y1173 ELISA); type: cell-based; settings: value outside parentheses
In short: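 Read-out was Y1173 phosphorylation, measured by chemiluminescent ELISA with anti-EGFR capture of lysates. HEKn keratinocytes (wild-type EGFR) were treated with compound for 3 h.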

H1975 (EGFR L858/T790M) = H1975 (EGFR L858/T790M) (Homo sapiens, UniProt P00533, L858R/T790M); assay: EGFR target modulation in H1975 cell line (phospho-EGFR Y1173 ELISA); type: cell-based
In short: (§2)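 3 h compound exposure of cells in 10% FBS/RPMI, 37 °C; lysis on ice 20 min; lysate captured overnight at 4 °C on anti-EGFR-coated plates; anti-rabbit-HRP, chemiluminescence.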

EGFR(L858R/T790M) = target: T1, EGFR(L858R/T790M) (Homo sapiens, UniProt P00533, L858R/T790M); assay: EGFR biochemical assay (HTRF), IC50 determinations
T1 construct: purchased from Carna (GST-a.a. 669-1210)
In short: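 Two formats were run: compound preincubated at room temperature with enzyme and biotin-TK peptide before ATP starts the reaction, or no preincubation with enzyme added last. Reactions ran 60 min at room temperature and were stopped with EDTA. Phosphopeptide was read by HTRF (PT66K/SAXL, 1 h).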

[3] = target: human EGFR L858R/T790M (NIH/3T3 cells) (Homo sapiens, UniProt P00533, L858R/T790M); assay: EGFR target modulation in engineered NIH/3T3 cell lines (phospho-EGFR Y1068 AlphaLISA), EGFR L858R/T790M; type: cell-based; settings: engineered NIH/3T3 cells, read-out: NIH3T3 IC50 (μM) EGFR (L858R/T790M)
Chain of human EGFR L858R/T790M (NIH/3T3 cells) (P00533 25-1210 T790M/L858R): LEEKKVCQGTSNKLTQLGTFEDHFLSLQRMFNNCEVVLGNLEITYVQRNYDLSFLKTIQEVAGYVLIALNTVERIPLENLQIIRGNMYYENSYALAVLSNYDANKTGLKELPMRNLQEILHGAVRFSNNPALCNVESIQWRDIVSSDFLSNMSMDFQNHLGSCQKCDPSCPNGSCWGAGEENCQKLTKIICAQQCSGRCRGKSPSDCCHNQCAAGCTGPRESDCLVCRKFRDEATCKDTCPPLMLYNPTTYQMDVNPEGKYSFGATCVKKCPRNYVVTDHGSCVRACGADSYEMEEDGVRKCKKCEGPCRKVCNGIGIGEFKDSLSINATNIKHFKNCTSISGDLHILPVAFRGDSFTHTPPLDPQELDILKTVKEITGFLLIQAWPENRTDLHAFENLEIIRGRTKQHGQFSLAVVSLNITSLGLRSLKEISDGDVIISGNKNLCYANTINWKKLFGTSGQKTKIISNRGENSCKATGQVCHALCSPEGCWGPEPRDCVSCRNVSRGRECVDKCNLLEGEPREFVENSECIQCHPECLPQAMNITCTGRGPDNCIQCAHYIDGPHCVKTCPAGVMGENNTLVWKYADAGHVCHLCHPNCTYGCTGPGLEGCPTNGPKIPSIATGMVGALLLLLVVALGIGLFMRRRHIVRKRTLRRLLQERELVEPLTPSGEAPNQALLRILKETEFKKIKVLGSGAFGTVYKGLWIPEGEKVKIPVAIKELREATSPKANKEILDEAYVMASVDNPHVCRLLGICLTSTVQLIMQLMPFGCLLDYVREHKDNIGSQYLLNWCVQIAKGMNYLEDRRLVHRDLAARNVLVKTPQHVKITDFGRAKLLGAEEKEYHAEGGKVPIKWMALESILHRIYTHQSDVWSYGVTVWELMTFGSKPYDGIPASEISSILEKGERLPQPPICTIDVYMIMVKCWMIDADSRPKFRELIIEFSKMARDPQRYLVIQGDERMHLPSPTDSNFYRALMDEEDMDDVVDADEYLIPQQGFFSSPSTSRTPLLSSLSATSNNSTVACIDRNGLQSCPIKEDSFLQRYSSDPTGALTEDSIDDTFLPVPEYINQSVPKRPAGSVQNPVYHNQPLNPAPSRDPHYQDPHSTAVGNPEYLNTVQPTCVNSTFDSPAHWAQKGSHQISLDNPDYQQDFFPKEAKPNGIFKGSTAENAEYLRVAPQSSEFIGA
In short: as §1

HCC827 (Del E746-A750) = HCC827 (Del E746-A750) (Homo sapiens, UniProt P00533, DEL746-750); assay: EGFR target modulation in HCC827 cell line (phospho-EGFR Y1173 ELISA); type: cell-based
Chain of HCC827 (Del E746-A750) (P00533 with tags, fused parts or gaps DEL746-750): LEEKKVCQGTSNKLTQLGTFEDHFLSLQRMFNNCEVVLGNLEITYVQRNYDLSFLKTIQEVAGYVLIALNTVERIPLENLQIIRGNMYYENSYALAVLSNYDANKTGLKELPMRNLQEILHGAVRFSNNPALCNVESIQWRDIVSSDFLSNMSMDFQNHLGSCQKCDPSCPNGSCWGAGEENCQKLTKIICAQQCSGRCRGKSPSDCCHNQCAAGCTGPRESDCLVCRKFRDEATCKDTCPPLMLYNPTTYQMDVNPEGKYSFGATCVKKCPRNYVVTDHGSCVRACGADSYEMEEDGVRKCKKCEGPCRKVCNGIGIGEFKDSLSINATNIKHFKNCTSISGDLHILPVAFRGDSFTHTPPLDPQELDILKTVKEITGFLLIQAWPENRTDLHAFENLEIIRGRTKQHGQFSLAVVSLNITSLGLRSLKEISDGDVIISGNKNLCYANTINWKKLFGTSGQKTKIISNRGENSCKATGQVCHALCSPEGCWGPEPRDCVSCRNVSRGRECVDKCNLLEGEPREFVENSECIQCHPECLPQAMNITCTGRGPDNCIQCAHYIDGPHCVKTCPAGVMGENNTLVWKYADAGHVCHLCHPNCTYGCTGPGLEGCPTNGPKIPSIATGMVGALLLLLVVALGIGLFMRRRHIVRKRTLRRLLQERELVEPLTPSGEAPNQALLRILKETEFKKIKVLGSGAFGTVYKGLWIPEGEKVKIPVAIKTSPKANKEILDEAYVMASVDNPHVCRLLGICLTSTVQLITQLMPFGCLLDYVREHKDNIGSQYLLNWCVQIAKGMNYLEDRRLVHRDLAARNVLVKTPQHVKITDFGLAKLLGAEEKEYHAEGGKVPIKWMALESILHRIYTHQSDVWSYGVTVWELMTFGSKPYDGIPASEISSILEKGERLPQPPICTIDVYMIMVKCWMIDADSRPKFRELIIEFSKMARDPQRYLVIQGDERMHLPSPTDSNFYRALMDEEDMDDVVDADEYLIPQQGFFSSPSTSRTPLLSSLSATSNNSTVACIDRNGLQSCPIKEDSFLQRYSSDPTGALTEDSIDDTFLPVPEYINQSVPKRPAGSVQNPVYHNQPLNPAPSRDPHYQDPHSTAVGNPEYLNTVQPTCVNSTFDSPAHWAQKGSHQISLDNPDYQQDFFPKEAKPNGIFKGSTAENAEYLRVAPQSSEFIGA
Method: EGFR Target Modulation in H1975, H3255 and HCC827 Cell Lines Tissue Culture. Cells were maintained in 10% FBS/RPMI supplemented with 100 μg/ml Penicillin/Streptomycin (Hyclone #SH30236.01). […] The cells were allowed to incubate overnight in a 37° C., 5% CO2 humidified tissue culture incubator. […] The serial diluted compounds were transferred to the plate containing cells by using a 50 nl Pin Head device (Perkin Elmer) and the cells were placed back in the incubator for 3 hours. Phospho-EGFR ([…]) Target Modulation Assay. The media was reduced to 20 ul using a Bio-Tek ELx 405 SelectTM plate washer. […] The plates were shaken at 4° C. for 20 minutes. An aliquot of 25 ul from each well was transferred to pEGFR(Y1173) ELISA plates for analysis. Phospho-EGFR ([…]) ELISA. Solid white high-binding ELISA plates (Greiner #781074) were coated with 5 ug/ml anti-EGFR capture antibody (R&D Systems #AF231) overnight in 50 mM carbonate/bicarbonate pH 9.5 buffer. Plates were blocked with 1% BSA (Sigma #A7030) in PBS for 1 hour at room temperature. Wash steps were carried out with a Bio-Tek ELx405 SelectTM using 4 cycles of 100 ul TBS-T (20 mM Tris, 137 mM NaCl, 0.05% Tween-20) per well. […] Lysis was allowed to occur for 20 minutes on ice. A 25 ul aliquot was added to each well of the blocked ELISA plate and incubated overnight at 4° C. with gentle shaking. […] After washing, 1:2,000 anti-rabbit-HRP (Cell Signaling #7074) in 0.2% BSA/TBS-T was added and incubated for 1 hour at room temperature. Chemiluminescent detection was carried out with SuperSignal ELISA Pico substrate (ThermoScientific #37069). Signal was read on EnVision plate reader using built-in UltraLUM setting. Data Analysis. Control cells treated with EGF were set to 100% maximum response. […] With these parameters, the IC50's for each compound in each cell line was calculated using non-linear curve fitting analysis.

H3255 (EGFR L858R) = H3255 (EGFR L858R) (Homo sapiens, UniProt P00533, L858R); assay: EGFR target modulation in H3255 cell line (phospho-EGFR Y1173 ELISA); type: cell-based
Chain of H3255 (EGFR L858R) (P00533 25-1210 L858R): as the sequence (P00533 25-1210 L858R) above
In short: as §2

[4] = EGFR (L858R/T790M) with 90 min pre-incubation, read-out: IC50 (μM) Column B
[5] = EGFR (L858R/T790M) with no pre-incubation, read-out: IC50 (μM) Column A

| IC50 [1] | IC50 [2] | IC50 (HEKn (EGFR WT)) | IC50 (H1975 (EGFR L858/T790M)) | IC50 (EGFR(L858R/T790M); [4]) | IC50 (EGFR(L858R/T790M); [5]) | IC50 [3] | IC50 (HCC827 (Del E746-A750)) | IC50 (H3255 (EGFR L858R)) | SMILES |
| --- | --- | --- | --- | --- | --- | --- | --- | --- | --- |
| 0.152 µM | 0.004 µM | 0.45 µM | 0.008 µM | < 0.001 µM | 0.007 µM | 0.004 µM | 0.002 µM | 0.012 µM | Cc1cc(C(=O)Nc2nc3cccc(Cl)c3n2[C@@H]2CCCCN(C(=O)/C=C/CN3CCCC3)C2)ccn1 [Example 1, (R,E)-N-(7-chloro-1-(1-(4-(pyrrolidin-1-yl)but-2-enoyl)azepan-3-yl)-1H-benzo[d]imidazol-2-yl)-2-methylisonicotinamide] |
| 0.183 µM | 0.008 µM | 0.91 µM | 0.01 µM | < 0.001 µM | 0.01 µM | 0.011 µM | < 0.001 µM | 0.015 µM | Cc1cc(C(=O)Nc2nc3cccc(Cl)c3n2[C@@H]2CCCCN(C(=O)/C=C/CN3CC(F)C3)C2)ccn1 [Example 2, (R,E)-N-(7-chloro-1-(1-(4-(3-fluoroazetidin-1-yl)but-2-enoyl)azepan-3-yl)-1H-benzo[d]imidazol-2-yl)-2-methylisonicotinamide] |
| 5 µM | 0.051 µM | > 6.9 µM | 0.01 µM | 0.008 µM | 0.062 µM | 0.008 µM | 0.071 µM | 0.118 µM | C=CC(=O)N1CCC[C@@H](n2c(NC(=O)c3cccc(C(F)(F)F)c3)nc3cc(CN(C)C(C)=O)ccc32)C1 [Example 17-119] |
| 0.019 µM | < 0.001 µM | 0.098 µM | 0.001 µM | < 0.001 µM | < 0.001 µM | < 0.001 µM | < 0.001 µM | 0.002 µM | Cc1cccc2nc(NC(=O)c3ccnc(OC(F)F)c3)n([C@@H]3CCCCN(C(=O)/C=C/CN(C)C)C3)c12 [Example 17-103] |
| > 7.6 µM | 0.157 µM | 6.4 µM | 0.249 µM | 0.011 µM | 0.156 µM | 0.174 µM | 0.108 µM | 0.32 µM | Cc1cc(C(=O)Nc2nc3cccc(Cl)c3n2[C@@H]2CCCCN(C(=O)/C=C/CN3CCC(F)(F)C3)C2)ccn1 [Example 3-3] |
| > 10 µM | 0.174 µM | > 10 µM | 0.022 µM | 0.004 µM | 0.115 µM | 0.017 µM | 0.291 µM | 0.199 µM | C=CC(=O)N1CCC[C@@H](n2c(NC(=O)c3cccc(C(F)(F)F)c3)nc3cc(COCC)ccc32)C1 [Example 17-123] |
| > 10 µM | 0.176 µM | > 10 µM | 0.016 µM | < 0.001 µM | 0.062 µM | 0.02 µM | 0.09 µM | 0.39 µM | C=CC(=O)N1CCC[C@@H](n2c(NC(=O)c3cccc(C(F)(F)F)c3)nc3cc(COC)ccc32)C1 [Example 17-122] |
| > 10 µM | 0.124 µM | > 10 µM | 0.009 µM | 0.002 µM | 0.038 µM | 0.007 µM | 0.153 µM | 0.083 µM | C=CC(=O)N1CCC[C@@H](n2c(NC(=O)c3cccc(C(F)(F)F)c3)nc3cccc(C)c32)C1 [Example 17-106] |
| > 10 µM | 0.04 µM | > 10 µM | 0.015 µM | 0.003 µM | 0.04 µM | 0.006 µM | 0.135 µM | 0.155 µM | C=CC(=O)N1CCC[C@@H](n2c(NC(=O)c3cccc(C(F)(F)F)c3)nc3cc(CN4CCOCC4)ccc32)C1 [Example 17-112] |
| 7.3 µM | 0.111 µM | 4.5 µM | 0.086 µM | 0.005 µM | 0.084 µM | 0.148 µM | 0.04 µM | 0.09 µM | Cc1cc(C(=O)Nc2nc3cccc(Cl)c3n2[C@@H]2CCCCN(C(=O)/C=C/CN3CC(F)(F)C3)C2)ccn1 [Example 3-15] |
| 6.4 µM | 0.05 µM | > 10 µM | 0.013 µM | 0.004 µM | 0.036 µM | 0.006 µM | 0.243 µM | 0.29 µM | C=CC(=O)N1CCC[C@@H](n2c(NC(=O)c3cccc(C(F)(F)F)c3)nc3cc(CN4CCCC4)ccc32)C1 [Example 17-117] |
| 0.081 µM | 0.001 µM | 0.265 µM | 0.002 µM | < 0.001 µM | 0.003 µM | 0.001 µM | < 0.001 µM | 0.004 µM | C=CC(=O)N1CCCC[C@@H](n2c(NC(=O)c3cc(C)nc(C)c3)nc3cc(CN4CCCC4)cc(C)c32)C1 [Example 17-113] |
| 0.026 µM | < 0.001 µM | 0.095 µM | 0.001 µM | < 0.001 µM | 0.001 µM | 0.001 µM | < 0.001 µM | 0.002 µM | C=CC(=O)N1CCCC[C@@H](n2c(NC(=O)c3ccnc(C)c3)nc3cc(CN4CCC4)cc(C)c32)C1 [Example 17-145] |
| 0.065 µM | 0.002 µM | 0.061 µM | 0.002 µM | < 0.001 µM | 0.002 µM | 0.002 µM | < 0.001 µM | 0.002 µM | C=CC(=O)N1CCCC[C@@H](n2c(NC(=O)c3ccnc(C)c3)nc3cc(CN4CCS(=O)(=O)CC4)cc(C)c32)C1 [Example 17-155] |
| 0.024 µM | < 0.001 µM | 0.065 µM | < 0.001 µM | < 0.001 µM | 0.001 µM | < 0.001 µM | < 0.001 µM | 0.002 µM | C=CC(=O)N1CCCC[C@@H](n2c(NC(=O)c3ccnc(C)c3)nc3cc(CN4CCCC4)cc(C)c32)C1 [Example 17-126] |
| 0.34 µM | 0.004 µM | 1.52 µM | 0.016 µM | < 0.001 µM | 0.01 µM | 0.002 µM | 0.007 µM | 0.034 µM | Cc1cc(C(=O)Nc2nc3cccc(Cl)c3n2[C@@H]2CCCCN(C(=O)/C=C/CN(C)C)C2)cc(C)n1 [Example 6, (R,E)-N-(7-chloro-1-(1-(4-(dimethylamino)but-2-enoyl)azepan-3-yl)-1H-benzo[d]imidazol-2-yl)-2,6-dimethylisonicotinamide] |
| 0.029 µM | < 0.001 µM | 0.072 µM | < 0.001 µM | < 0.001 µM | 0.002 µM | < 0.001 µM | < 0.001 µM | 0.001 µM | C=CC(=O)N1CCCC[C@@H](n2c(NC(=O)c3ccnc(C)c3)nc3cc(CN4CCCCC4)cc(C)c32)C1 [Example 17-144] |
